Results taken from patent US8497249B1, “Fungicidal properties of three saponins from Capsicum frutescens” (The United States of America, as represented by the …, priority 2008, dated 2013).

Columns and labels:
[1] = system: germinating conidia of A. flavus; test: Time of fungicidal activity (time course study); format: cell-based, Aspergillus flavus; settings: after 5 minutes of incubation; total weight 12.67 μg/ml (4:3:3: 12.64 μg/ml)
Experimental: Bioassays were performed as described earlier (De Lucca et al. 2002, 2006b, supra). The test fungi (Aspergillus flavus, A. niger, A. fumigatus, Fusarium oxysporum, F. solani, and F. verticilioides (formerly F. moniliforme) were grown on potato dextrose agar (Difco, Detroit, Mich.) […] for seven days (30° C.). When needed, conidia were suspended in 1% potato dextrose broth (Difco, Detroit, Mich.), pH 5.2 (PDB). Using a hemocytometer, stock suspension concentrations were determined and final (working) concentrations of 3×10^4 conidia/ml were prepared. Following preparation of the conidia, a sample of nongerminated conidia was immediately used in the bioassay to determine the effect of the saponins on nongerminated conidia. An additional conidial sample for each fungus was incubated for 8 hr at 30° C. These conidia were used in bioassays to determine activity of the saponins against germinating conidia. Individual bioassays consisted of conidia (25 μl), PDB, and the appropriate amount of a mixture of CAY-1, 1081 and 919. The CAY-1 control (CAY-1 alone) bioassays measuring the fungicidal response against the same fungi were performed in a similar manner. Final test volumes were 250 μl. […] Time of fungicidal activity for the saponin mixtures was determined by using the germinating conidia of A. flavus. […] Significance (p<0.001) was determined between viability control and test saponin data.

A. niger = test: Conidial viability bioassay (30 min incubation, colony enumeration); format: cell-based, Aspergillus niger; parameters: key to Lowest concentration showing significant (p < 0.001) viability reduction: CAY-1 Control / Total Weight of mixture: —: No viability reduction observed; settings: for Lowest concentration showing significant (p < 0.001) viability reduction: CAY-1 Control / Total Weight of mixture: 30 min incubation; for Reduction of conidial viability / fungicidal activity (in words): FIG. 2C
Experimental: (§1) Bioassays were performed as described earlier (De Lucca et al. 2002, 2006b, supra). The test fungi (Aspergillus flavus, A. niger, A. fumigatus, Fusarium oxysporum, F. solani, and F. verticilioides (formerly F. moniliforme) were grown on potato dextrose agar (Difco, Detroit, Mich.) slants for seven days (30° C.). When needed, conidia were suspended in 1% potato dextrose broth (Difco, Detroit, Mich.), pH 5.2 (PDB). Using a hemocytometer, stock suspension concentrations were determined and final (working) concentrations of 3×10^4 conidia/ml were prepared. Following preparation of the conidia, a sample of nongerminated conidia was immediately used in the bioassay to determine the effect of the saponins on nongerminated conidia. An additional conidial sample for each fungus was incubated for 8 hr at 30° C. These conidia were used in bioassays to determine activity of the saponins against germinating conidia.
(§2) Individual bioassays consisted of conidia (25 μl), PDB, and the appropriate amount of a mixture of CAY-1, 1081 and 919. The CAY-1 control (CAY-1 alone) bioassays measuring the fungicidal response against the same fungi were performed in a similar manner. Final test volumes were 250 μl. Controls consisted of conidia and PDB medium.
(§3) After a 30 min incubation period (30° C.), aliquots (50 μl) of each sample were spread on each of four potato dextrose agar plates. The plates were incubated for 48 hours at 30° C., followed by colony enumeration. Three separate runs per conidial type and fungus were performed (n=12).
(§4) Statistical analyses were performed on the data using SigmaStat 3.1 (Systat, Point Richmond, Calif.). Significance (p<0.001) was determined between viability control and test saponin data.

[2] = system: fungi of agricultural and medical importance; settings: pure saponin; De Lucca et al. 2002, 2006b and others; cited from earlier work
Fusarium species = test: Conidial viability bioassays, Fusarium species; format: cell-based; settings: nongerminated conidia of the tested Fusarium isolates
Experimental: as §1, §2
After a 30 min incubation period (30° C.), aliquots (50 μl) of each sample were spread on each of four potato dextrose agar plates. […]

F. solani = test: Conidial viability bioassay (30 min incubation, colony enumeration); format: cell-based, Fusarium solani; parameters: key to Lowest concentration showing significant (p < 0.001) viability reduction: CAY-1 Control / Total Weight of mixture: —: No viability reduction observed; settings: for Lowest concentration showing significant (p < 0.001) viability reduction: CAY-1 Control / Total Weight of mixture: 30 min incubation; for Reduction of conidial viability / fungicidal activity (in words): FIG. 2F
Experimental: as §1, §2, §3, §4

Aspergillus flavus = test: as above; format: cell-based; parameters: key to Lowest concentration showing significant (p < 0.001) viability reduction: CAY-1 Control / Total Weight of mixture: —: No viability reduction observed; settings: for Lowest concentration showing significant (p < 0.001) viability reduction: CAY-1 Control / Total Weight of mixture: 30 min incubation; for Reduction of conidial viability / fungicidal activity (in words): FIG. 2A
Experimental: as §1, §2, §3, §4

[3] = system: germinating conidia of A. flavus; settings: within five minutes of the initiation of incubation; De Lucca et al., 2002; cited from earlier work
Fusarium oxysporum = test: Conidial viability bioassay (30 min incubation, colony enumeration); format: cell-based; parameters: key: —: No viability reduction observed
Experimental: as §1
(§5) Individual bioassays consisted of conidia (25 μl), PDB, and the appropriate amount of a mixture of CAY-1, 1081 and 919. The CAY-1 control (CAY-1 alone) bioassays measuring the fungicidal response against the same fungi were performed in a similar manner. Final test volumes were 250 μl. […]
as §4

[4] = system: Aspergillus flavus, A. fumigatus and A. niger; settings: in vitro; De Lucca et al. 2006a; cited from earlier work
A. fumigatus = test: Conidial viability bioassay (30 min incubation, colony enumeration); format: cell-based, Aspergillus fumigatus; parameters: key: —: No viability reduction observed
Experimental: as §1, §5, §4

[5] = system: F. verticilioides (formerly F. moniliforme); test: as above; format: cell-based, Fusarium verticilioides; parameters: key to Lowest concentration showing significant (p < 0.001) viability reduction: CAY-1 Control / Total Weight of mixture: —: No viability reduction observed; settings: for Lowest concentration showing significant (p < 0.001) viability reduction: CAY-1 Control / Total Weight of mixture: 30 min incubation
Experimental: as §1, §2, §3, §4

[6] = germinating conidia, listed as CAY-1 control
[7] = germinating conidia, listed as CAY-1 controls

For `CC1CCC2(OC1)OC1CC3C4CCC5CC(OC6OC(CO)C(OC7OC(CO)C(O)C(OC8OC(CO)C(O)C(OC9OC(CO)C(O)C(O)C9O)C8O)C7OC7OC(CO)C(O)C(O)C7O)C(O)C6O)C(O)CC5(C)C4CCC3(C)C1C2C` (stereo not shown) [CAY-1], the “Activity (in words)” value [1] was “inactive”, the “Lowest concentration showing significant (p < 0.001) viability reduction: CAY-1 Control / Total Weight of mixture” value (A. niger; germinating conidia) was 6.62 µg/mL and the “Reduction of conidial viability / fungicidal activity (in words)” value (A. niger; germinating conidia) was “No major differences”. For the same compound, the “Reduction of conidial viability / fungicidal activity (in words)” value (A. niger; [6]) was “significantly (p<0.001) lower viability counts”, the “Reduction of conidial viability / fungicidal activity (in words)” value (A. niger; [7]) was “significant viability loss” and the “Lowest concentration showing significant (p < 0.001) viability reduction: CAY-1 Control / Total Weight of mixture” value (A. niger; nongerminated conidia) was “—”. The “Antifungal properties (in words)” value [2] was “potent fungicidal properties”, the “Reduction of conidial viability (in words)” value (Fusarium species) was “not reduced” and the “Lowest concentration showing significant (p < 0.001) viability reduction: CAY-1 Control / Total Weight of mixture” value (F. solani; germinating conidia) was 12.43 µg/mL. The “Reduction of conidial viability / fungicidal activity (in words)” value (F. solani; germinating conidia) was “significantly fungicidal”, the “Reduction of conidial viability / fungicidal activity (in words)” value (F. solani; [7]) was “significant viability loss” and the “Lowest concentration showing significant (p < 0.001) viability reduction: CAY-1 Control / Total Weight of mixture” value (F. solani; nongerminated conidia) was “—”. For the same compound, the “Lowest concentration showing significant (p < 0.001) viability reduction: CAY-1 Control / Total Weight of mixture” value (Aspergillus flavus; germinating conidia) was 4.97 µg/mL, the “Reduction of conidial viability / fungicidal activity (in words)” value (Aspergillus flavus; [6]) was “significantly (p<0.001) lower viability counts” and the “Reduction of conidial viability / fungicidal activity (in words)” value (Aspergillus flavus; [7]) was “significant viability loss”. The “Lowest concentration showing significant (p < 0.001) viability reduction: CAY-1 Control / Total Weight of mixture” value (Aspergillus flavus; nongerminated conidia) was “—^#”, the “Dose producing significant lethality” value [3] was 12.4 µg/mL and the “Lowest concentration showing significant (p < 0.001) viability reduction: CAY-1 Control / Total Weight of mixture” value (Fusarium oxysporum; germinating conidia) was “—”. For the same compound, the “Lowest concentration showing significant (p < 0.001) viability reduction: CAY-1 Control / Total Weight of mixture” value (Fusarium oxysporum; nongerminated conidia) was “—”, the “Interaction with Amphotericin B and intraconazole” value [4] was “additive synergy” and the “Lowest concentration showing significant (p < 0.001) viability reduction: CAY-1 Control / Total Weight of mixture” value (A. fumigatus; germinating conidia) was “—”. For the same compound, the “Lowest concentration showing significant (p < 0.001) viability reduction: CAY-1 Control / Total Weight of mixture” value (A. fumigatus; nongerminated conidia) was “—”, the “Lowest concentration showing significant (p < 0.001) viability reduction: CAY-1 Control / Total Weight of mixture” value ([5]; germinating conidia) was “—” and the “Reduction of conidial viability / fungicidal activity (in words)” value ([5]; germinating conidia, FIG. 2D) was “inactive”. The “Lowest concentration showing significant (p < 0.001) viability reduction: CAY-1 Control / Total Weight of mixture” value ([5]; nongerminated conidia) was “—”.
